Data published in patent publication US4990499A, “Anti-herpes simplex virus activity of 5-alkoxymethyl-2'-deoxycytidimes and their 5-monophosphates” (priority 1989, dated 1991).
Converted amounts (≈) assume the structure as drawn. Where two headings read alike, the source gives them in different places.

Experiments:
HSV-1, KOS [1] = assay: HSV-1 KOS infectivity (virus yield) in Vero cells after removal of drugs; assay type: cell-based, Herpes simplex virus type 1; details: for Virus Infectivity (% of virus control): after drug removal, combination with H4 dUrd 530 μM, 4320 min
Description: Vero cells were infected with HSV-1, KOS strain and then samples of the infected cells were treated with MMdCyd in various quantities and with MMdCyd in various quantities together with 530 μM of H4 dUrd. Cells were washed twice with 0.4 ml of MEM to remove residual drug, overlaid with growth medium and incubated for 72 h. The virus was harvested by two cycles of freezing and thawing. The culture fluid from each treatment was pooled and assayed for virus yield.
^b H4 dUrd 530 μM (125 μg/ml) was added along with MMdCyd.

[2] = Inhibition of proliferation (MTC), L1210 cells; assay type: cell-based, murine; details: mouse, highest concentration tested
Description: (§1) Inhibitory effects of MMdCyd on the proliferation of murine and human tumor cells was also investigated. MTC for MMdCyd was greater than 400 μg/ml (highest concentration tested) against Raji, MOLT/4F, MT4, CEM and H-9 (human) and L1210 (murine Leukemia) cells.

[3] = test system: Herpes simplex virus type 1 (HSV-1); assay: Antiviral activity against HSV-1, viral plaque reduction (ED50); assay type: cell-based
Description: (§2) Infected cells were treated with different concentrations of MMdCyd and the concentration required to reduce viral plaque formation by 50%, i.e. ED50, was determined.
(§3) ^a ED50 : Concentration required to reduce viral plaque formatio
Vero cells were infected with the KOS strain of HSV-1. The compound of compounds indicated in Table 2, below, and are shown graphically in FIGS. 1, (H4 dUrd) and 2 (H4 Urd).
^a Antiviral assays were carried out using Vero cells. All compounds
were added immediately after virus infection.
(§4) The antiviral activity of MMdCyd in the presence of H4 dUrd was determined against several strains of HSV-1 and HSV-2.
Vero cells were infected with HSV-1, strain 76 and treated with MMdCyd at different times post virus infection.
(§5) The antiviral activity, ^a cyctotoxicity* and antiviral indices of MMdCyd in the presence of H4 dUrd, dGuo and H4 dUrd+dGuo were determined.
^a Antiviral assays were carried out using Vero cells. Compounds were
added immediately after virus infection. Virus HSV1, strains KOS and 76;
KOS, virus input = 50 PFU

Vero cells = assay: Cytotoxicity (MTC), Vero cells; assay type: cell-based; details: monkey
Description: as §5
(§6) Minimum cytotoxic concentrations (MTC) for MMdCyd was greater than 1,000 μg/ml for RK-13, HEP-2 and Vero cells.
(§7) ^c MTC = Minimum toxic concentration concentration required to
(§8) produce definite evidence of microscopic toxicity on confluent monolayer

[4] = Cytotoxicity (MTC), Vero cells; assay type: cell-based; details: monkey
Description: as §5, §6, §7, §8

[5] = Inhibition of proliferation (MTC), Raji cells; assay type: cell-based; details: human, highest concentration tested
Description: as §1

[6] = test system: Herpes simplex virus type 2 (HSV-2); assay: Antiviral activity against HSV-2, viral plaque reduction (ED50); assay type: cell-based; details: 50 PFU
Description: as §2, §3, §4
^a Antiviral assays were carried out using Vero cells. Virus input 50
^b ED50 : Concentration required to reduce viral plaque formatio

[7] = Inhibition of proliferation (MTC), MOLT/4F cells; assay type: cell-based; details: human, highest concentration tested
Description: as §1

[8] = test system: Herpes simplex virus type 1 (HSV-1); assay: Antiviral activity against HSV-1, viral plaque reduction (ED50); assay type: cell-based; remark: listed apart in the source
[9] = Inhibition of proliferation (MTC), CEM cells; assay type: cell-based; details: human, highest concentration tested
Description: as §1

[10] = Inhibition of proliferation (MTC), MT4 cells; assay type: cell-based; details: human, highest concentration tested
Description: as §1

HSV-1, KOS [11] = assay: HSV-1 KOS infectivity in Vero cells prior to washing of drugs; assay type: cell-based, Herpes simplex virus type 1; details: for Virus Infectivity (% of virus control): combination with H4 dUrd 530 μM
Description: Vero cells were infected with HSV-1, KOS strain and then treated with MMdCyd in various quantities, and also with MMdCyd in various quantities together with a constant amount of H4 dUrd. The virus infectivity was observed and the results are given in Table 5 and are shown graphically in FIG. 3.
^a Virus infectivity was scored using following parameters: rounding
of cells, plaque formation and loss of monolayer structure.
^b Concentration of H4 dUrd used was 530 μM (125 μg/ml).

[12] = Cytotoxicity (MTC), RK-13 cells; assay type: cell-based; details: rabbit, read-out: minimum cytotoxic concentration (MTC)
Description: as §6, §7, §8

[13] = test system: Deoxynucleoside Triphosphate (dNTP) Pools in Vero Cells Infected with Herpes Simplex Virus Type 1; assay: Deoxynucleoside triphosphate (dNTP) pools in HSV-1 infected Vero cells; assay type: cell-based; details: Table 8, HSV-1 KOS infected Vero cells, 10 PFU/cell, treatment 7 hours, ± S.E.
Method in brief: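 Vero cells infected with HSV-1 KOS at 10 PFU/cell for one hour, then treated for seven hours with dGuo alone or dGuo plus H4 dUrd added right after adsorption. Intracellular dNTP pools then assayed, with untreated Vero cells as control.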

For `COCc1cn([C@H]2C[C@H](O)[C@@H](CO)O2)c(=O)nc1N` [MMdCyd, 5-methoxymethyl-2'-deoxycytidine], the “effectiveness against the virus, conclusion” value (HSV-1, KOS [1]; Example 8) was “effective against the virus”, the “Virus Infectivity (% of virus control)” value (HSV-1, KOS [1]; MMdCyd 1.6 μM) was 100 % of virus control and the “Virus Infectivity (% of virus control)” value (HSV-1, KOS [1]; MMdCyd 3.2 μM) was 99 % of virus control. The “Virus Infectivity (% of virus control)” value (HSV-1, KOS [1]; MMdCyd 6.4 μM) was 99 % of virus control, the “Virus Infectivity (% of virus control)” value (HSV-1, KOS [1]; MMdCyd 12.8 μM) was 99 % of virus control and the “Virus Infectivity (% of virus control)” value (HSV-1, KOS [1]; MMdCyd 25.6 μM) was 99 % of virus control. For the same compound, the “Virus Infectivity (% of virus control)” value (HSV-1, KOS [1]; MMdCyd 51.2 μM) was 70 % of virus control, the “Virus Infectivity (% of virus control)” value (HSV-1, KOS [1]; MMdCyd 104 μM) was 55 % of virus control and the “Virus Infectivity (% of virus control)” value (HSV-1, KOS [1]; MMdCyd 208 μM) was 40 % of virus control. The “Virus Infectivity (% of virus control)” value (HSV-1, KOS [1]; MMdCyd 416 μM) was 20 % of virus control, the “Virus Infectivity (% of virus control)” value (HSV-1, KOS [1]; MMdCyd 832 μM) was 10 % of virus control and the “virus infectivity after washing of drugs” value (HSV-1, KOS [1]; less than 26 μM MMdCyd) was “no decrease in virus infectivity”. For the same compound, the MCC [2] was greater than 400 µg/mL, the ED50 [3] was 6 to 12 µg/mL and the ED50 ([3]; FIG. 6, after preincubating cells 3 hours with 25 μm dUrd, then washing) was 21 µg/mL (≈ 77.4 µM). For the same compound, the ED50 ([3]; FIG. 6, with 25 μM dUrd added simultaneously) was 38 µg/mL (≈ 140 µM), the EC50 ([3]; HSV-1 76, Vero, 50 PFU, added 4 hours post infection, read-out: ED50 (the source's name)) was 28 µM and the EC50 ([3]; HSV-1 76, Vero, 50 PFU, added 6 hours post infection, read-out: ED50 (the source's name)) was 32 µM. For the same compound, the EC50 ([3]; HSV-1 (strain cell empty, under NAH), RK-13, 10 PFU, read-out: ED50 (the source's name)) was 3 µM, the EC50 ([3]; HSV-1, Vero and HEP-2 cells, read-out: ED50 (the source's name)) was 14 to 26 µM and the EC50 ([3]; HSV-1 KOS, Vero, 20 PFU, read-out: ED50 (the source's name)) was 14 µM. The EC50 ([3]; HSV-1 KOS, Vero, 50 PFU, read-out: ED50 (the source's name)) was 26 µM, the EC50 ([3]; HSV-1 NAH, Vero, 50 PFU, read-out: ED50 (the source's name)) was 66 µM and the “activity against thymidine kinase negative strain” value ([3]; HSV--TK^-) was “lack of activity”. For the same compound, the “ED50, average value” ([3]; Table 11, Vero, HSV-1 KOS and 76, 50-100 PFU, H4 dUrd 12 μg/ml, dGuo 25-30 μg/ml, average) was 8 µg/mL (≈ 29.5 µM), the “A.I (antiviral index, MTC divided by ED50)” value ([3]; monkey, vero cells) was greater than 125 and the EC50 ([3]; read-out: ED50, HSV-1 TK, Vero, 10 PFU, highest concentration tested) was greater than 833 µM. The EC50 ([3]; read-out: ED50, HSV-1 TK, Vero, 50 PFU, highest concentration tested) was greater than 833 µM, the antiherpes activity ([3]; summary statement) was “potent and selective antiherpes agent” and the “ED50 on delayed treatment compared with one hour post virus infection” value ([3]; treatment delayed 4 to 6 hours post infection) was “essentially similar”. The “MTC (minimum toxic concentration)” value (Vero cells) was > 1,000 μg/ml, the MCC [4] was greater than 1000 µg/mL and the MCC [5] was greater than 400 µg/mL. It also gave an EC50 ([6]; HSV-2 333, Vero) of 175 µM, an EC50 ([6]; HSV-2 MS, Vero) of 228 µM and an EC50 ([6]; HSV-2 X-265, Vero) of 130 µM. For the same compound, the MCC [7] was greater than 400 µg/mL, the EC50 ([8]; HSV-1 76, HEP-2, 50 PFU) was 22 µM and the EC50 ([8]; HSV-1 (strain cell empty, under NAH), RK-13, 50 PFU) was 5 µM. The EC50 ([8]; HSV-1 KOS, Vero, 20 PFU, deaminase inhibitor 125 μg/ml, added immediately after infection) was 12 to 17 µM, the MCC [9] was greater than 400 µg/mL and the MCC [10] was greater than 400 µg/mL. For the same compound, the “viral infectivity, conclusion” value (HSV-1, KOS [11]; Example 7) was “reduces viral infectivity”, the “Virus Infectivity (% of virus control)” value (HSV-1, KOS [11]; MMdCyd 1.6 μM) was 90 % of virus control and the “Virus Infectivity (% of virus control)” value (HSV-1, KOS [11]; MMdCyd 3.2 μM) was 80 % of virus control. The “Virus Infectivity (% of virus control)” value (HSV-1, KOS [11]; MMdCyd 6.4 μM) was 66 % of virus control, the “Virus Infectivity (% of virus control)” value (HSV-1, KOS [11]; MMdCyd 12.8 μM) was 64 % of virus control and the “Virus Infectivity (% of virus control)” value (HSV-1, KOS [11]; MMdCyd 25.6 μM) was 45 % of virus control. The “Virus Infectivity (% of virus control)” value (HSV-1, KOS [11]; MMdCyd 51.2 μM) was 32 % of virus control, the “Virus Infectivity (% of virus control)” value (HSV-1, KOS [11]; MMdCyd 104 μM) was 20 % of virus control and the “Virus Infectivity (% of virus control)” value (HSV-1, KOS [11]; MMdCyd 208 μM) was 9 % of virus control. For the same compound, the “Virus Infectivity (% of virus control)” value (HSV-1, KOS [11]; MMdCyd 416 μM) was 0 % of virus control, the “Virus Infectivity (% of virus control)” value (HSV-1, KOS [11]; MMdCyd 832 μM) was 0 % of virus control and the “production of infectious virus particles” value (HSV-1, KOS [11]; combination: MMdCyd >12 μM with H4 dUrd (printed 530 M)) was “significantly decreased”. For the same compound, the MCC [12] was greater than 1000 µg/mL, the dATP pool [13] was 25.2 ± 0.49 .rho.moles/10^6 cells and the dCTP pool [13] was 29.6 ± 1.85 .rho.moles/10^6 cells. For the same compound, the dGTP pool [13] was 72.6 ± 2.07 .rho.moles/10^6 cells and the dTTP pool [13] was 1072 ± 11.2 .rho.moles/10^6 cells.
